Experimental data as given in patent EP0534511A1, “HIV protease inhibitors useful for the treatment of aids” (MERCK & CO. INC., priority 1991, dated 1993).

Target: T1, HIV protease (Human immunodeficiency virus type 1 group M subtype B, UniProt P04585)
T1 construct: the protease expressed in Eschericia coli; made in house; host or cells: Escherichia coli
Assay: Assay for Inhibition of Microbial Expressed Viral Protease
Type: biochemical
Conditions: protease expressed in Eschericia coli; peptide substrate Val-Ser-Gln-Asn-(betanapthyl)Ala-Pro-Ile-Val 0.5 mg/mL; 50 mM Na acetate, pH 5.5, 30°C, 1 hour; HPLC; read-out: IC₅₀
Procedure: Assay for Inhibition of Microbial Expressed Viral Protease
Inhibition studies of the reaction of the protease expressed in Eschericia coli with a peptide substrate [Val-Ser-Gln-Asn-(betanapthyl)Ala-Pro-Ile-Val, 0.5 mg/mL at the time the reaction is initiated] were in 50 mM Na acetate, pH 5.5, at 30°C for 1 hour. Various concentrations of inhibitor in 1.0 ul DMSO were added to 25 ul of the peptide solution in water. The reaction is initiated by the addition of 15 ul of 0.33 nM protease (0.11 ng) in a solution of 0.133 M Na acetate pH 5.5 and 0.26% bovine serum albumin. The reaction was quenched with 160 ul of 5% phosphoric acid. Products of the reaction were separated by HPLC (VYDAC wide pore 5 cm C-18 reverse phase, acetonitrile gradient, 0.1% phosphoric acid). The extent of inhibition of the reaction was determined from the peak heights of the products.

SMILES | IC50
O=C(N[C@@H](CC1CCCCC1)[C@@H](O)C[C@@H](Cc1ccccc1)C(=O)N[C@H]1c2ccccc2C[C@H]1O)O[C@H]1CCOC1 [C, N-[(2R)-hydroxy-1(S)-indanyl]-5(S)-(3(S)-tetrahydrofuranyloxycarbonylamino)-4(S)-hydroxy-6-cyclohexyl-2(R)-phenylmethyl hexamamide] | 0.04 nM
CC(C)[C@H](C[C@H](O)[C@H](CC1CCCCC1)NC(=O)O[C@H]1CCOC1)C(=O)N[C@H]1c2ccccc2C[C@H]1O [A, N-[(2R)-hydroxy-1(S)-indanyl]-5(S)-(3(S)-tetrahydrofuranyloxycarbonylamino)-4(S)-hydroxy-6-cyclohexyl-2(R)-isopropyl hexanamide] | 0.37 nM
